In publication PMC10044120, “Potent and selective covalent inhibition of the papain-like protease from SARS-CoV-2” (Nature Communications, 2023):
Like-named read-outs stand apart in the source and are kept apart here.

Assays:
USP2 = molecular target: T1, USP2 (Homo sapiens, UniProt O75604); experiment: biochemical; conditions: USP2 10 nM, Ub-rhodamine110
T1 construct: USP2c, USP4, USP7, USP8c, USP15, USP30WT, and UCH-L1; purchased LifeSensors, Inc. (Malvern, PA)

PLpro from SARS-CoV-2 [1] = molecular target: T2, PLpro from SARS-CoV-2 (Severe acute respiratory syndrome coronavirus 2, UniProt P0DTD1); experiment: biochemical; format: biochemical
SARS-CoV-2 PLpro = SARS-CoV-2 PLpro (Severe acute respiratory syndrome coronavirus 2, UniProt P0DTD1); experiment: biochemical; conditions: PLpro 10 nM, ISG15-CHOP2
PLpro from SARS-CoV-2 [2] = molecular target: T2, PLpro from SARS-CoV-2; experiment: biochemical; format: biochemical; set-up: mean (kobs plot, Supplementary Figure 6 II): unit: min^-1
[3] = Metabolic stability in mouse liver S9 fraction; conditions: CD-1, mouse
UCHL1 = molecular target: T3, UCHL1 (Homo sapiens, UniProt P09936); experiment: biochemical; conditions: UCHL1 10 nM, Ub-rhodamine110
T3 construct: purchased LifeSensors, Inc. (Malvern, PA)

PLpro = PLpro (Severe acute respiratory syndrome coronavirus 2, UniProt P0DTD1); experiment: Intact protein ESI-MS to assess covalent adduct formation; format: binding, SARS-CoV-2; set-up: unit not given here
USP8 = molecular target: T4, USP8 (Homo sapiens, UniProt P40818); experiment: biochemical; conditions: USP8 10 nM, Ub-rhodamine110
T4 construct: USP2c, USP4, USP7, USP8c, USP15, USP30WT, and UCH-L1; purchased LifeSensors, Inc. (Malvern, PA)
T4 sequence (P40818 777-1109): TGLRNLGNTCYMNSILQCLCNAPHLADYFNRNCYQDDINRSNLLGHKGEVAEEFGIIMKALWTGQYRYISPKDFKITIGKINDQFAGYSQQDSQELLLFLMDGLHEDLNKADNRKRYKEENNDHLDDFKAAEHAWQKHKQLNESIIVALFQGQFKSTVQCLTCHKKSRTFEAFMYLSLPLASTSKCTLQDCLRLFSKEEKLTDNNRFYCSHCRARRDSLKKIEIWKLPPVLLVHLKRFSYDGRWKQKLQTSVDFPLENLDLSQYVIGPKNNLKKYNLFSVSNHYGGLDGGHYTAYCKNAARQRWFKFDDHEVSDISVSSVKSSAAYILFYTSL

T1 sequence (O75604 267-599): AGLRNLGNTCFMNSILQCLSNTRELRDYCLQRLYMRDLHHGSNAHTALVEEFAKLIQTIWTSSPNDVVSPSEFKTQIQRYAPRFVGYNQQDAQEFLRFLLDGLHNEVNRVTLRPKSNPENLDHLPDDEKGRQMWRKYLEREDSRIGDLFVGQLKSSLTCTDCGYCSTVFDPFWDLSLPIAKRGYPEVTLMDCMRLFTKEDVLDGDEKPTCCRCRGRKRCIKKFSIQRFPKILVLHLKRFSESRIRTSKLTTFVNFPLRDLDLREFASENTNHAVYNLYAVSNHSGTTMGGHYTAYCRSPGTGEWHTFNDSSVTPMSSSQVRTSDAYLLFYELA
T3 sequence (P09936 whole entry): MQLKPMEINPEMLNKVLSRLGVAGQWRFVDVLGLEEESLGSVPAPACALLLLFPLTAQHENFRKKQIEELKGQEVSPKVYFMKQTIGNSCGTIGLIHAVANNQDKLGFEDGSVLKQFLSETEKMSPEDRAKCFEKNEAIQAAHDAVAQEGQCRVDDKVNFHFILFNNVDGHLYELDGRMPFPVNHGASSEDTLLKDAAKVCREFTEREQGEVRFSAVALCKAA

C[C@@H](NC(=O)c1ccccc1CCC(=O)NNC(=O)CCl)c1cccc2ccccc12 [Compound 9, (R)-2-(3-(2-(2-chloroacetyl)hydrazineyl)-3-oxopropyl)-N-(1-(naphthalen-1-yl)ethyl)benzamide]
IC50 (USP2): > 30 µM | remaining activity at 6.34 µM (PLpro from SARS-CoV-2 [1]; 0.5 h, inhibitor 6.34 uM): 38.1% | remaining activity at 20 µM (PLpro from SARS-CoV-2 [1]; 0.5 h, inhibitor 20.00 uM): 17.8% | IC50 (PLpro from SARS-CoV-2 [1]; after 30-min incubation, purified PLpro, Z-RLRGG-AMC substrate): 5.4 µM | Hill slope (SARS-CoV-2 PLpro): 0.817 | IC50 (SARS-CoV-2 PLpro): 20.2 µM | kinact/KI (PLpro from SARS-CoV-2 [2]): 110 M⁻¹ s⁻¹ | remaining activity at 1 µM (PLpro from SARS-CoV-2 [2]; 5 min, read-out: PLpro activity after preincubation, inhibitor 1 uM, preincubation 5 min): 103% | remaining activity at 4 µM (PLpro from SARS-CoV-2 [2]; 5 min, read-out: PLpro activity after preincubation, inhibitor 4 uM, preincubation 5 min): 97.6% | remaining activity at 5 µM (PLpro from SARS-CoV-2 [2]; 5 min, read-out: PLpro activity after preincubation, inhibitor 5 uM, preincubation 5 min): 92.9% | remaining activity at 10 µM (PLpro from SARS-CoV-2 [2]; 5 min, read-out: PLpro activity after preincubation, inhibitor 10 uM, preincubation 5 min): 78.5% | remaining activity at 15 µM (PLpro from SARS-CoV-2 [2]; 5 min, read-out: PLpro activity after preincubation, inhibitor 15 uM, preincubation 5 min): 66.8% | remaining activity at 25 µM (PLpro from SARS-CoV-2 [2]; 5 min, read-out: PLpro activity after preincubation, inhibitor 25 uM, preincubation 5 min): 57.8% | remaining activity at 30 µM (PLpro from SARS-CoV-2 [2]; 5 min, read-out: PLpro activity after preincubation, inhibitor 30 uM, preincubation 5 min): 62% | remaining activity at 36 µM (PLpro from SARS-CoV-2 [2]; 5 min, read-out: PLpro activity after preincubation, inhibitor 36 uM, preincubation 5 min): 57.3% | remaining activity at 1 µM (PLpro from SARS-CoV-2 [2]; 10 min, read-out: PLpro activity after preincubation, inhibitor 1 uM, preincubation 10 min): 103% | remaining activity at 2 µM (PLpro from SARS-CoV-2 [2]; 10 min, read-out: PLpro activity after preincubation, inhibitor 2 uM, preincubation 10 min): 93.2% | remaining activity at 5 µM (PLpro from SARS-CoV-2 [2]; 10 min, read-out: PLpro activity after preincubation, inhibitor 5 uM, preincubation 10 min): 74% | remaining activity at 10 µM (PLpro from SARS-CoV-2 [2]; 10 min, read-out: PLpro activity after preincubation, inhibitor 10 uM, preincubation 10 min): 53.4% | remaining activity at 15 µM (PLpro from SARS-CoV-2 [2]; 10 min, read-out: PLpro activity after preincubation, inhibitor 15 uM, preincubation 10 min): 47.4% | remaining activity at 25 µM (PLpro from SARS-CoV-2 [2]; 10 min, read-out: PLpro activity after preincubation, inhibitor 25 uM, preincubation 10 min): 38.1% | remaining activity at 30 µM (PLpro from SARS-CoV-2 [2]; 10 min, read-out: PLpro activity after preincubation, inhibitor 30 uM, preincubation 10 min): 42.9% | remaining activity at 36 µM (PLpro from SARS-CoV-2 [2]; 10 min, read-out: PLpro activity after preincubation, inhibitor 36 uM, preincubation 10 min): 38.6% | remaining activity at 2 µM (PLpro from SARS-CoV-2 [2]; 20 min, read-out: PLpro activity after preincubation, inhibitor 2 uM, preincubation 20 min): 77.2% | remaining activity at 8 µM (PLpro from SARS-CoV-2 [2]; 20 min, read-out: PLpro activity after preincubation, inhibitor 8 uM, preincubation 20 min): 39.6% | remaining activity at 1 µM (PLpro from SARS-CoV-2 [2]; 0.5 h, read-out: PLpro activity after preincubation, inhibitor 1 uM, preincubation 30 min): 83.9% | remaining activity at 2 µM (PLpro from SARS-CoV-2 [2]; 0.5 h, read-out: PLpro activity after preincubation, inhibitor 2 uM, preincubation 30 min): 68.5% | remaining activity at 4 µM (PLpro from SARS-CoV-2 [2]; 0.5 h, read-out: PLpro activity after preincubation, inhibitor 4 uM, preincubation 30 min): 44.8% | remaining activity at 5 µM (PLpro from SARS-CoV-2 [2]; 0.5 h, read-out: PLpro activity after preincubation, inhibitor 5 uM, preincubation 30 min): 40.6% | remaining activity at 8 µM (PLpro from SARS-CoV-2 [2]; 0.5 h, read-out: PLpro activity after preincubation, inhibitor 8 uM, preincubation 30 min): 30.9% | remaining activity at 10 µM (PLpro from SARS-CoV-2 [2]; 0.5 h, read-out: PLpro activity after preincubation, inhibitor 10 uM, preincubation 30 min): 31.6% | remaining activity at 15 µM (PLpro from SARS-CoV-2 [2]; 0.5 h, read-out: PLpro activity after preincubation, inhibitor 15 uM, preincubation 30 min): 12.2% | remaining activity at 25 µM (PLpro from SARS-CoV-2 [2]; 0.5 h, read-out: PLpro activity after preincubation, inhibitor 25 uM, preincubation 30 min): 10.3% | remaining activity at 30 µM (PLpro from SARS-CoV-2 [2]; 0.5 h, read-out: PLpro activity after preincubation, inhibitor 30 uM, preincubation 30 min): 13.7% | remaining activity at 36 µM (PLpro from SARS-CoV-2 [2]; 0.5 h, read-out: PLpro activity after preincubation, inhibitor 36 uM, preincubation 30 min): 12.5% | remaining activity at 1 µM (PLpro from SARS-CoV-2 [2]; 1 h, read-out: PLpro activity after preincubation, inhibitor 1 uM, preincubation 60 min): 68.1% | remaining activity at 2 µM (PLpro from SARS-CoV-2 [2]; 1 h, read-out: PLpro activity after preincubation, inhibitor 2 uM, preincubation 60 min): 42.3% | remaining activity at 4 µM (PLpro from SARS-CoV-2 [2]; 1 h, read-out: PLpro activity after preincubation, inhibitor 4 uM, preincubation 60 min): 21.8% | remaining activity at 5 µM (PLpro from SARS-CoV-2 [2]; 1 h, read-out: PLpro activity after preincubation, inhibitor 5 uM, preincubation 60 min): 16.1% | remaining activity at 8 µM (PLpro from SARS-CoV-2 [2]; 1 h, read-out: PLpro activity after preincubation, inhibitor 8 uM, preincubation 60 min): 10.3% | remaining activity at 15 µM (PLpro from SARS-CoV-2 [2]; 1 h, read-out: PLpro activity after preincubation, inhibitor 15 uM, preincubation 60 min): 7.87% | remaining activity at 25 µM (PLpro from SARS-CoV-2 [2]; 1 h, read-out: PLpro activity after preincubation, inhibitor 25 uM, preincubation 60 min): 12.5% | remaining activity at 2 µM (PLpro from SARS-CoV-2 [2]; 85 min, read-out: PLpro activity after preincubation, inhibitor 2 uM, preincubation 85 min): 29.8% | remaining activity at 2 µM (PLpro from SARS-CoV-2 [2]; 110 min, read-out: PLpro activity after preincubation, inhibitor 2 uM, preincubation 110 min): 18% | remaining activity at 1 µM (PLpro from SARS-CoV-2 [2]; […], read-out: PLpro activity after preincubation, inhibitor 1 uM, preincubation 15 min): 93.3% | remaining activity at 1 µM (PLpro from SARS-CoV-2 [2]; […], read-out: PLpro activity after preincubation, inhibitor 1 uM, preincubation 45 min): 79.9% | remaining activity at 1 µM (PLpro from SARS-CoV-2 [2]; […], read-out: PLpro activity after preincubation, inhibitor 1 uM, preincubation 90 min): 54% | remaining activity at 2 µM (PLpro from SARS-CoV-2 [2]; […], read-out: PLpro activity after preincubation, inhibitor 2 uM, preincubation 45 min): 56.1% | remaining activity at 4 µM (PLpro from SARS-CoV-2 [2]; […], read-out: PLpro activity after preincubation, inhibitor 4 uM, preincubation 15 min): 73.3% | remaining activity at 4 µM (PLpro from SARS-CoV-2 [2]; […], read-out: PLpro activity after preincubation, inhibitor 4 uM, preincubation 45 min): 30.6% | remaining activity at 4 µM (PLpro from SARS-CoV-2 [2]; […], read-out: PLpro activity after preincubation, inhibitor 4 uM, preincubation 90 min): 18.5% | remaining activity at 5 µM (PLpro from SARS-CoV-2 [2]; […], read-out: PLpro activity after preincubation, inhibitor 5 uM, preincubation 15 min): 57.4% | remaining activity at 5 µM (PLpro from SARS-CoV-2 [2]; […], read-out: PLpro activity after preincubation, inhibitor 5 uM, preincubation 45 min): 20.3% | remaining activity at 5 µM (PLpro from SARS-CoV-2 [2]; […], read-out: PLpro activity after preincubation, inhibitor 5 uM, preincubation 90 min): 9.23% | remaining activity at 8 µM (PLpro from SARS-CoV-2 [2]; […], read-out: PLpro activity after preincubation, inhibitor 8 uM, preincubation 45 min): 12.3% | remaining activity at 10 µM (PLpro from SARS-CoV-2 [2]; […], read-out: PLpro activity after preincubation, inhibitor 10 uM, preincubation 15 min): 49.7% | remaining activity at 10 µM (PLpro from SARS-CoV-2 [2]; […], read-out: PLpro activity after preincubation, inhibitor 10 uM, preincubation 45 min): 14.1% | remaining activity at 15 µM (PLpro from SARS-CoV-2 [2]; […], read-out: PLpro activity after preincubation, inhibitor 15 uM, preincubation 15 min): 40.2% | remaining activity at 15 µM (PLpro from SARS-CoV-2 [2]; […], read-out: PLpro activity after preincubation, inhibitor 15 uM, preincubation 45 min): 10.8% | remaining activity at 15 µM (PLpro from SARS-CoV-2 [2]; […], read-out: PLpro activity after preincubation, inhibitor 15 uM, preincubation 90 min): 12.6% | remaining activity at 25 µM (PLpro from SARS-CoV-2 [2]; […], read-out: PLpro activity after preincubation, inhibitor 25 uM, preincubation 15 min): 17.8% | remaining activity at 25 µM (PLpro from SARS-CoV-2 [2]; […], read-out: PLpro activity after preincubation, inhibitor 25 uM, preincubation 90 min): 10.7% | remaining activity at 30 µM (PLpro from SARS-CoV-2 [2]; […], read-out: PLpro activity after preincubation, inhibitor 30 uM, preincubation 15 min): 29.9% | remaining activity at 30 µM (PLpro from SARS-CoV-2 [2]; […], read-out: PLpro activity after preincubation, inhibitor 30 uM, preincubation 45 min): 6.98% | remaining activity at 36 µM (PLpro from SARS-CoV-2 [2]; […], read-out: PLpro activity after preincubation, inhibitor 36 uM, preincubation 15 min): 18% | remaining activity at 36 µM (PLpro from SARS-CoV-2 [2]; […], read-out: PLpro activity after preincubation, inhibitor 36 uM, preincubation 45 min): 6.34% | Time dep. (time-dependent inhibition) (PLpro from SARS-CoV-2 [2]; fluorogenic peptide assay, varied preincubation time): Yes | mean (kobs plot, Supplementary Figure 6 II) (PLpro from SARS-CoV-2 [2]; inhibitor 1 uM): 0.0070 | mean (kobs plot, Supplementary Figure 6 II) (PLpro from SARS-CoV-2 [2]; inhibitor 2 uM): 0.0147 | mean (kobs plot, Supplementary Figure 6 II) (PLpro from SARS-CoV-2 [2]; inhibitor 4 uM): 0.0210 | mean (kobs plot, Supplementary Figure 6 II) (PLpro from SARS-CoV-2 [2]; inhibitor 5 uM): 0.0344 | mean (kobs plot, Supplementary Figure 6 II) (PLpro from SARS-CoV-2 [2]; inhibitor 8 uM): 0.0503 | mean (kobs plot, Supplementary Figure 6 II) (PLpro from SARS-CoV-2 [2]; inhibitor 10 uM): 0.0558 | mean (kobs plot, Supplementary Figure 6 II) (PLpro from SARS-CoV-2 [2]; inhibitor 13 uM): 0.0770 | mean (kobs plot, Supplementary Figure 6 II) (PLpro from SARS-CoV-2 [2]; inhibitor 15 uM): 0.0658 | mean (kobs plot, Supplementary Figure 6 II) (PLpro from SARS-CoV-2 [2]; inhibitor 25 uM): 0.0896 | mean (kobs plot, Supplementary Figure 6 II) (PLpro from SARS-CoV-2 [2]; inhibitor 30 uM): 0.0802 | mean (kobs plot, Supplementary Figure 6 II) (PLpro from SARS-CoV-2 [2]; inhibitor 36 uM): 0.0968 | half-life [3]: 4 min | microsomal CLint [3]: 544 µL/min/mg | IC50 (UCHL1): > 30 µM | Measured adduct mass (PLpro): 401 | IC50 (USP8): > 30 µM
